Measurements: patent US11046647B2, “Activators of the unfolded protein response” (The Board of Trustees of the University of Illinois, priority 2018, dated 2021)

Key:
[1] = system: intracellular ATP levels in TYS-Luc cells; assay: Intracellular ATP levels, TYS-Luc cells; assay type: cell-based, human; settings: 1,000 nM
Procedure: TYS-Luc cells were maintained DMSO vehicle (Veh), 1,000 nM BHPI, 1,000 nM (−)-105 with and without 10,000 nM thapsigargin (THG) for the indicated times. ATP levels were determines using a kit and relative ATP levels were from a standard curve. […] (n=3±SEM).

TYS-Luc cells = assay: Long-term cell culture experiment (treat 2 weeks, regrow 4 weeks), MTS, TYS-Luc; assay type: cell-based, human
Procedure: To simulate the effect of several weeks of treatment of a tumor in a mouse xenograft, long-term cell culture experiments were performed. TYS-Luc cells (T47DERαY537S-Luc cells; ERαY537S is the most lethal ERα mutation seen in metastatic breast cancer) were plated at 4,000 cells/well in 96 well plates. […] After 2 weeks (medium change every 2 days) cell number was determined using MTS and a standard curve of absorbance versus cell number for TYS-Luc cells. Notes: (i) Bars denote the BHPI and (−)-105 arms of the experiment. No drug is present during regrow. […] This allows any surviving cells to regrow. After 4 weeks the cells were assayed using MTS. […] (Note: Visual inspection of the wells confirmed that there were no cells in the well treated for 2 weeks with active (−)-105.) To test whether the cells that regrew after BHPI treatment were resistant to BHPI they were re-treated for another cycle (BHPI Retreat) and shown to retain sensitivity to BHPI killing. (n=8 biological replicates ±SEM.

MCF-7 cells = assay: Trypan Blue exclusion cell death assay, MCF-7; assay type: cell-based, human; settings: 24 hours
Source text: TRYPAN BLUE: For decades, viable cells have been measured by their ability to exclude the dye Trypan Blue. […] Dead cells, which have lost membrane integrity, take up the dye and are blue. Thus, the percentage of dead cells is the percentage of cells that are Trypan Blue positive out of the total cell population. Quantitative assessment of Trypan Blue uptake uses a cell counter from Fisher. Since the assay is instrument based, there is no observer bias in determining the percentage of Trypan Blue positive cells.
TRYPAN BLUE ASSAYS: Assays are performed on cells in 6 well plates: 300,000 cells are plated in each well of a 6-well plate in 3 ml of medium. After 24 hours, the DMSO vehicle or the indicated compound is added (in 1000th of the vol.) The cells incubated for an additional 24 hours, and then harvested in 0.25 ml of trypsin, followed after harvest by 0.75 ml of medium. […]
The Trypan Blue cell death assay was used to evaluate the ability of the active enantiomer of 105 (−) [(−)-105] to kill ERα positive MCF-7 and TYS-Luc, human breast cancer cells. […] After 24 hours, the cells were harvested, and the % dead cells was determined by automated Trypan Blue exclusion using the Countess II automated hemocytometer. Percentage of viable cells was calculated by doing 100-(Cell Death %). […]

[2] = system: TYD-Luc cells (T47DERαD538G-luciferase human breast cancer cells) tumors; assay: Orthotopic TDG-Luc mouse xenograft, bioluminescent imaging; assay type: in vivo
Source text: FIG. 41. SERK-F6 eradicates mutant ERα primary and metastatic breast cancer. a-c, TYS-luc. orthotopic tumors were established in NSG ovariectomized mice (no E2 pellet, 60 days to establish) and dosed daily as indicated (n=5-6). b, representative examples of bioluminescence images of SERK-F6 treated mice (7 days). d,e, TDG-luc. orthotopic tumors were established in NSG ovariectomized mice (no E2 pellet, 120 days to establish) and dosed daily as indicated (n=4-5). e, Bioluminescence image of SERK-F6 treated mouse with TDG-luc. tumor burden after 7 days. f, MYS-luc. orthotopic tumors were established in NSG ovariectomized mice (no E2 pellet, 45 days to establish) and dosed daily as indicated (n=4-5). g, MDG-luc. orthotopic tumors were established in NSG ovariectomized mice (no E2 pellet, 45 days to establish) and dosed daily as indicated (n=4-5). h, Metastatic model with MDG-luc. cells injected into the tail-vein of NSG ovariectomized mice (no E2 pellet, 1.5 months to establish) and mice were dosed daily as indicated (n=4-5).
FIG. 4A illustrates how IC50's for cell death were determined. 4B tests the ability BHPI, (−)-105, and 01-15 to kill. […] Large orthotopic breast tumors of TYD-Luc cells (T47DERαD538G-luciferase human breast cancer cells) were allowed to form for 4 months in immune suppressed NSG mice. […]

## O=C1Nc2c(C(F)(F)F)cccc2C1(c1ccc(O)cc1)c1ccc(OC(F)(F)F)cc1 (single isomer, unassigned; (-)) [(−)-105, 3-(4-hydroxyphenyl)-3-(4-(trifluoromethoxy)phenyl)-7-(trifluoromethyl)indolin-2-one]
[1]
  intracellular ATP levels: reduces intracellular ATP levels
TYS-Luc cells; 1 μM for 2 weeks, then 4 weeks without drug
  regrowth of cells after drug removal: no regrowth
TYS-Luc cells; 1 μM, 2 weeks treatment
  TYS-Luc cells killed: 100%
MCF-7 cells
  killing of MCF-7 cells, dose response: superior to BHPI
[2]; 40 mg/kg oral gavage, 3 days
  efficacy on oral administration: effective when administered orally
[2]; daily dosing
  effect on D538G mutant tumors (TDG cell line): destruction of D538G mutant tumors
